{"source": "ChEMBL document CHEMBL4152265", "about": "“Phthalocyanine-sulfonamide conjugates: Synthesis and photodynamic inactivation of Gram-negative and Gram-positive bacteria” (Eur J Med Chem, 2018)", "key": {"Staphylococcus aureus [1]": {"tested_on": "Staphylococcus aureus", "assay": "Effect on viability of Staphylococcus aureus ATCC 29213 at 20 uM after 30 mins in absence of light by […]", "type": "organism-based", "conditions": "in vivo, 0.5 h"}, "Escherichia coli [2]": {"tested_on": "Escherichia coli", "assay": "Effect on viability of recombinant bioluminescence Escherichia coli harboring pHK724/pHK555 at 20 uM after 30 mins in absence of light by luminometry", "type": "organism-based", "conditions": "in vivo, 0.5 h"}, "Staphylococcus aureus [3]": {"tested_on": "Staphylococcus aureus", "assay": "Effect on viability of Staphylococcus aureus ATCC 29213 using PVP encapsulated compound at 20 uM after 30 mins in absence of light by […]", "type": "organism-based", "conditions": "in vivo, 0.5 h"}, "Escherichia coli [4]": {"tested_on": "Escherichia coli", "assay": "Antibacterial activity against recombinant bioluminescence Escherichia coli harboring pHK724/pHK555 at 20 uM preincubated in dark for 30 mins followed by red light irradiation at 1620 J/cm2 for 180 mins by luminometry", "type": "functional, organism-based"}, "[5]": {"assay": "Induction of singlet oxygen generation in PBS/DMSO assessed as DPBF decay at 0.5 mmol/L measured after 7 mins of LED irradiation at 9 mW/cm2", "type": "functional"}, "Escherichia coli [6]": {"tested_on": "Escherichia coli", "assay": "Antibacterial activity against recombinant bioluminescence Escherichia coli harboring pHK724/pHK555 at 20 uM using PVP encapsulated compound preincubated in dark for 30 mins followed by red light irradiation at 1620 J/cm2 for 180 mins by luminometry", "type": "functional, organism-based"}, "[7]": {"assay": "Solubility of compound in DMSO at 2.5 to 25 umol/L by UV-Vis spectroscopic method", "type": "physicochemical"}, "[8]": {"assay": "Solubility of PVP encapsulated compound in PBS at 2.5 to 25 umol/L by UV-Vis spectroscopic method", "type": "physicochemical", "conditions": "buffer"}, "Staphylococcus aureus [9]": {"tested_on": "Staphylococcus aureus", "assay": "Antibacterial activity against Staphylococcus aureus ATCC 29213 using PVP encapsulated compound at 20 uM preincubated in dark for 30 mins followed by red light irradiation at 270 J/cm2 for 30 mins by […] relative to control", "type": "functional, organism-based"}, "Escherichia coli [10]": {"tested_on": "Escherichia coli", "assay": "Effect on viability of recombinant bioluminescence Escherichia coli harboring pHK724/pHK555 using PVP encapsulated compound at 20 uM after 30 mins in absence of light by luminometry", "type": "organism-based", "conditions": "in vivo, 0.5 h"}, "[11]": {"assay": "Induction of singlet oxygen generation in PBS assessed as DPBF decay using PVP encapsulated compound at 0.5 mmol/L measured after 7 mins of LED irradiation at 9 mW/cm2", "type": "functional"}, "[12]": {"assay": "Induction of singlet oxygen generation in DMF assessed as DPBF decay at 0.5 mmol/L measured after 7 mins of LED irradiation at 9 mW/cm2", "type": "functional"}, "[13]": {"assay": "Photostability in PBS at 2 ml measured after 30 mins of red light irradiation at 150 mW/cm2 by UV-Vis spectroscopic method", "type": "physicochemical", "conditions": "buffer, 0.5 h"}, "[14]": {"assay": "Solubility of compound in PBS/10% DMSO at 2.5 to 25 umol/L by UV-Vis spectroscopic method", "type": "physicochemical", "conditions": "buffer"}, "Staphylococcus aureus [15]": {"tested_on": "Staphylococcus aureus", "assay": "Antibacterial activity against Staphylococcus aureus ATCC 29213 at 20 uM preincubated in dark for 30 mins followed by red light irradiation at 270 J/cm2 for 30 mins by […] relative to control", "type": "functional"}}, "note": "Activity calls are given as the source filed them. The calls are words filed in the database; no cut-off is given here.", "data": [{"smiles": "CC(C)NS(=O)(=O)c1ccc(Oc2cc3c(cc2Oc2ccc(S(=O)(=O)NC(C)C)cc2)-c2nc-3nc3[nH]c(nc4nc(nc5[nH]c(n2)c2cc(Oc6ccc(S(=O)(=O)NC(C)C)cc6)c(Oc6ccc(S(=O)(=O)NC(C)C)cc6)cc52)-c2cc(Oc5ccc(S(=O)(=O)NC(C)C)cc5)c(Oc5ccc(S(=O)(=O)NC(C)C)cc5)cc2-4)c2cc(Oc4ccc(S(=O)(=O)NC(C)C)cc4)c(Oc4ccc(S(=O)(=O)NC(C)C)cc4)cc32)cc1", "values": [{"measurement": "Activity", "setting": "Staphylococcus aureus [1]", "value": "Non-Toxic"}, {"measurement": "Activity", "setting": "Escherichia coli [2]", "value": "Non-Toxic"}, {"measurement": "Activity", "setting": "Staphylococcus aureus [3]", "value": "Non-Toxic"}, {"measurement": "Activity", "setting": "Escherichia coli [4]", "value": "Active"}, {"measurement": "Activity", "setting": "[5]", "value": 4, "unit": "%"}, {"measurement": "Activity", "setting": "Escherichia coli [6]", "value": "inactive"}, {"measurement": "solubility", "setting": "[7]", "value": "Soluble"}, {"measurement": "solubility", "setting": "[8]", "value": "Soluble"}, {"measurement": "Activity", "setting": "Staphylococcus aureus [9]", "value": "Active"}, {"measurement": "Activity", "setting": "Escherichia coli [10]", "value": "Non-Toxic"}, {"measurement": "Activity", "setting": "[11]", "value": 74, "unit": "%"}, {"measurement": "Activity", "setting": "[12]", "value": 96, "unit": "%"}, {"measurement": "Stability", "setting": "[13]", "value": "Stable"}, {"measurement": "solubility", "setting": "[14]", "value": "Insoluble"}]}, {"smiles": "CCN(CC)S(=O)(=O)c1ccc(Oc2cc3c(cc2Oc2ccc(S(=O)(=O)N(CC)CC)cc2)-c2nc-3nc3[nH]c(nc4nc(nc5[nH]c(n2)c2cc(Oc6ccc(S(=O)(=O)N(CC)CC)cc6)c(Oc6ccc(S(=O)(=O)N(CC)CC)cc6)cc52)-c2cc(Oc5ccc(S(=O)(=O)N(CC)CC)cc5)c(Oc5ccc(S(=O)(=O)N(CC)CC)cc5)cc2-4)c2cc(Oc4ccc(S(=O)(=O)N(CC)CC)cc4)c(Oc4ccc(S(=O)(=O)N(CC)CC)cc4)cc32)cc1", "values": [{"measurement": "Activity", "setting": "Staphylococcus aureus [15]", "value": ">3", "unit": "deltalog10CFU/ml"}, {"measurement": "Activity", "setting": "Staphylococcus aureus [1]", "value": "Non-Toxic"}, {"measurement": "Activity", "setting": "Escherichia coli [2]", "value": "Non-Toxic"}, {"measurement": "Activity", "setting": "Staphylococcus aureus [3]", "value": "Non-Toxic"}, {"measurement": "Activity", "setting": "Escherichia coli [4]", "value": "inactive"}, {"measurement": "Activity", "setting": "[5]", "value": 1, "unit": "%"}, {"measurement": "Activity", "setting": "Escherichia coli [6]", "value": "inactive"}, {"measurement": "solubility", "setting": "[7]", "value": "Soluble"}, {"measurement": "solubility", "setting": "[8]", "value": "Soluble"}, {"measurement": "Activity", "setting": "Staphylococcus aureus [9]", "value": "Active"}, {"measurement": "Activity", "setting": "Escherichia coli [10]", "value": "Non-Toxic"}, {"measurement": "Activity", "setting": "[11]", "value": 68, "unit": "%"}, {"measurement": "Activity", "setting": "[12]", "value": 93, "unit": "%"}, {"measurement": "Stability", "setting": "[13]", "value": "Stable"}, {"measurement": "solubility", "setting": "[14]", "value": "Insoluble"}]}, {"smiles": "COc1ccc(NS(=O)(=O)c2ccc(Oc3cc4c(cc3Oc3ccc(S(=O)(=O)Nc5ccc(OC)cc5)cc3)-c3nc-4nc4[nH]c(nc5nc(nc6[nH]c(n3)c3cc(Oc7ccc(S(=O)(=O)Nc8ccc(OC)cc8)cc7)c(Oc7ccc(S(=O)(=O)Nc8ccc(OC)cc8)cc7)cc63)-c3cc(Oc6ccc(S(=O)(=O)Nc7ccc(OC)cc7)cc6)c(Oc6ccc(S(=O)(=O)Nc7ccc(OC)cc7)cc6)cc3-5)c3cc(Oc5ccc(S(=O)(=O)Nc6ccc(OC)cc6)cc5)c(Oc5ccc(S(=O)(=O)Nc6ccc(OC)cc6)cc5)cc43)cc2)cc1", "values": [{"measurement": "Activity", "setting": "Staphylococcus aureus [15]", "value": ">3", "unit": "deltalog10CFU/ml"}, {"measurement": "Activity", "setting": "Staphylococcus aureus [1]", "value": "Non-Toxic"}, {"measurement": "Activity", "setting": "Escherichia coli [2]", "value": "Non-Toxic"}, {"measurement": "Activity", "setting": "Staphylococcus aureus [3]", "value": "Non-Toxic"}, {"measurement": "Activity", "setting": "Escherichia coli [4]", "value": "Active"}, {"measurement": "Activity", "setting": "[5]", "value": 4, "unit": "%"}, {"measurement": "Activity", "setting": "Escherichia coli [6]", "value": "inactive"}, {"measurement": "solubility", "setting": "[7]", "value": "Soluble"}, {"measurement": "solubility", "setting": "[8]", "value": "Soluble"}, {"measurement": "Activity", "setting": "Staphylococcus aureus [9]", "value": "Active"}, {"measurement": "Activity", "setting": "Escherichia coli [10]", "value": "Non-Toxic"}, {"measurement": "Activity", "setting": "[11]", "value": 59, "unit": "%"}, {"measurement": "Activity", "setting": "[12]", "value": 92, "unit": "%"}, {"measurement": "Stability", "setting": "[13]", "value": "Stable"}, {"measurement": "solubility", "setting": "[14]", "value": "Insoluble"}]}]}
